Experiments:
[1] = biological target: T1, 5-HT3 receptor (Rattus norvegicus, UniProt P35563); assay: Suppression of 5-HT-induced reflex bradycardia in urethane-anesthetised rats (antagonistic activity against 5-HT3 receptor in vivo); design: species or system Male Wister rat; settings: intravenous administration, suppression of reflex bradycardia generated by i.v. 5-HT, read-out: IC50 i.v.
T1 construct: from tissue
T1 sequence (P35563 24-483): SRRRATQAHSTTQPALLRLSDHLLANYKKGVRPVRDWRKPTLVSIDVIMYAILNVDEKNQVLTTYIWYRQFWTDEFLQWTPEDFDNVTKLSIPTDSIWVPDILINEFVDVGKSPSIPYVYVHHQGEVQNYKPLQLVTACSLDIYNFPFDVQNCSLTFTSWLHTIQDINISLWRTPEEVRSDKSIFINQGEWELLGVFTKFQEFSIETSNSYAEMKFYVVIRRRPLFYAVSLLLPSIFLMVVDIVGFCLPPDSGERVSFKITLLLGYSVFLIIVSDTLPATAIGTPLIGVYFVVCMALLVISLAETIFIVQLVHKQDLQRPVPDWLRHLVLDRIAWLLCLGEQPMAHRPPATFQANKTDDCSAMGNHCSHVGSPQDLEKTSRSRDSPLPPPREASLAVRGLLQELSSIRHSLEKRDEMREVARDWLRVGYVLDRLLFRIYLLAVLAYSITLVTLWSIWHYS
Method: Male Wister rat was urethane-anesthetised and fixed. Cannulas were inserted in the carotoid artery and in the thigh vein as used for recording of blood pressure and heart beat, and for the administration of the test compounds, respectively.
Several doses of a compound of the present invention were administered from the vein. 5-HT was administered rapidly to the vein, 2 mins. after insertion of cannulas. The suppression effect of the compounds were confirmed by the measurement of the reflex bradycardia generated (Nature 316, 126 (1985)).

[2] = Acute toxicity by intravenous administration; settings: mouse, in vivo; intravenous administration in mice
Method: Tests confirmed that the toxicity of the compounds of the present invention is very low. Therefore, the compounds of the present invention may be considered to be sufficiently safe and suitable for pharmaceutical use.
For example, the value of acute toxicity (LD50) of the compound prepared as in Example 1 was 50 mg/kg animal body weight by intravenous administration in mice.

Row | Structure (SMILES) | ED50 [1] | LD50 [2]
1 | CNc1cc2ccn(Cc3nc[nH]c3C)c(=O)c2cc1Cl.Cl.Cl [1(d), 6-methylamino-7-chloro-2-(5-methyl-imidazol-4-ylmethyl)-1,2-dihydro-isoquinolin-1-one dihydrochloride] | 0.49 mg/kg | –
2 | Cc1[nH]cnc1Cn1ccc2cc(N)c(Cl)cc2c1=O.Cl.Cl [Example 1, 6-amino-7-chloro-2-(5-methylimidazol-4-ylmethyl)-1,2-dihydroisoquinolin-1-one dihydrochloride] | 0.39 mg/kg | 50 mg/kg
3 | CNc1cc(Cl)cc2c(=O)n(Cc3nc[nH]c3C)ccc12.Cl.Cl [1(e), 5-methylamino-7-chloro-2-(5-methyl-imidazol-4-ylmethyl)-1,2-dihydro-isoquinolin-1-one dihydrochloride] | 1.44 mg/kg | –
4 | CC(=O)Nc1cc2ccn(Cc3nc[nH]c3C)c(=O)c2cc1Cl [Example 1(a)] | 0.99 mg/kg | –

Reference: EP0482939A1, “Isoquinolinone derivative” (ONO PHARMACEUTICAL CO., LTD., priority 1990, dated 1992)
